Molecular target: T1, human Y4 receptor (Homo sapiens, UniProt P50391)
T1 construct: expressed in transfected cells
Experiment: NPY4 cAMP HTRF Agonist Assay (inhibitory cAMP assay, Gi activation by Y4 agonism)
Format: cell-based
Conditions: human Y4 receptor, cAMP; read-out: hY4 CAMP EC50
In short: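 CHO cells stably expressing human Y4, 5000/well, exposed to compound with forskolin and IBMX in PBS for 30 min at room temperature. Gi-mediated inhibition of cAMP then measured by HTRF after 1 h with d2-conjugate and anti-cAMP cryptate.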

T1 sequence (P50391 whole entry): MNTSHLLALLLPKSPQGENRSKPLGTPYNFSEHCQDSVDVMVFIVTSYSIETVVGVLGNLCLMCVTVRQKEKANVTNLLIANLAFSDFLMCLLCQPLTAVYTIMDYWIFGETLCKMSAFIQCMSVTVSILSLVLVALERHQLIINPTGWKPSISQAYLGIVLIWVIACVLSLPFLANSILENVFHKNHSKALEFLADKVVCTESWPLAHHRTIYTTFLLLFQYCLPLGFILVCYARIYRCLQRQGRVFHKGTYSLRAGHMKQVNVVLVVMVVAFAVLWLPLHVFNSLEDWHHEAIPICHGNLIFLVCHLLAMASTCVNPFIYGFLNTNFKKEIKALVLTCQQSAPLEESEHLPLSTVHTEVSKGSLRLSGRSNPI

Compound	EC50
Nc1cccc(-c2cnc(N[C@@H]3CCCC[C@H]3N[C@H]3CCCN(c4cnc(C(F)(F)F)nc4)C3)o2)c1 [Example 412]	69 nM
COC(=O)Nc1cccc(-c2ccnc(N[C@@H]3CCCC[C@H]3N[C@H]3CCCN(c4cnc(C(F)(F)F)nc4)C3)c2)c1 [Example 413]	6 nM
CS(=O)(=O)Nc1cccc(-c2cnc(N[C@@H]3CCCC[C@H]3N[C@H]3CCCN(c4cnc(C(F)(F)F)nc4)C3)o2)c1 [Example 414]	5 nM
CS(=O)(=O)Nc1cccc(-c2ccnc(N[C@@H]3CCCC[C@H]3N[C@H]3CCCN(c4cnc(C(F)(F)F)nc4)C3)c2)c1 [Example 415]	19 nM
O=C1OCCN1c1cccc(-c2cnc(N[C@@H]3CCCC[C@H]3N[C@H]3CCCN(c4cnc(C(F)(F)F)nc4)C3)o2)c1 [Example 416]	49 nM
CCNC(=O)Nc1cccc(-c2cnc(N[C@@H]3CCCC[C@H]3N[C@H]3CCCN(c4cnc(C(F)(F)F)nc4)C3)o2)c1 [Example 417]	6 nM
C[C@]1(N[C@H]2CCCC[C@@H]2Nc2cc(-c3cccc(C(N)=O)c3)ccn2)CCCN(c2cnc(C(F)(F)F)nc2)C1 [Example 418]	48 nM
CC(C)COC(=O)Nc1cccc(-c2cnc(N[C@@H]3CCCC[C@H]3N[C@H]3CCCN(c4cnc(C(F)(F)F)nc4)C3)o2)c1 [Example 419]	7 nM
CC(C)(C)COC(=O)Nc1cccc(-c2cnc(N[C@@H]3CCCC[C@H]3N[C@H]3CCCN(c4cnc(C(F)(F)F)nc4)C3)o2)c1 [Example 420]	212 nM
CC(C)OC(=O)Nc1cccc(-c2cnc(N[C@@H]3CCCC[C@H]3N[C@H]3CCCN(c4cnc(C(F)(F)F)nc4)C3)o2)c1 [Example 421]	23 nM
NC(=O)c1cccc(-c2cnc(N[C@@H]3CCCC[C@H]3N[C@H]3C[C@@H]4C[C@H]3N(c3ncc(C(F)(F)F)cn3)C4)o2)c1 [Example 422]	41 nM
FC(F)(F)Oc1ccc(-c2cnc(N[C@@H]3CCCC[C@H]3N[C@H]3C[C@@H]4C[C@H]3N(c3ncc(C(F)(F)F)cn3)C4)o2)cc1 [Example 423]	222 nM
NC(=O)c1cccc(-c2ccnc(N[C@@H]3CCCC[C@H]3N[C@H]3C[C@@H]4C[C@H]3N(c3ncc(C(F)(F)F)cn3)C4)c2)c1 [Example 424]	69 nM
NC(=O)c1cc(-c2cnc(N[C@@H]3CCCC[C@H]3N[C@H]3CCCN(c4cnc(C(F)(F)F)nc4)C3)o2)ccn1 [Example 425]	15 nM
N#Cc1ccnc(N[C@@H]2CCCC[C@H]2N[C@H]2CCCN(c3cnc(C(F)(F)F)nc3)C2)c1 [Example 426]	600 nM
COC(=O)Nc1cccc(-c2cnc(N[C@@H]3CCCC[C@H]3N[C@H]3CCCN(c4cnc(C(F)(F)F)cn4)C3)o2)c1 [Example 427]	1 nM
CNC(=O)Nc1cccc(-c2cnc(N[C@@H]3CCCC[C@H]3N[C@H]3CCCN(c4cnc(C(F)(F)F)nc4)C3)o2)c1 [Example 428]	4 nM
CNC(=O)c1cccc(-c2cnc(N[C@@H]3CCCC[C@H]3N[C@H]3CCCN(c4cnc(C(F)(F)F)cn4)C3)o2)c1 [Example 429]	2 nM
N#Cc1cnc(N2CCC[C@H](N[C@@H]3CCCC[C@H]3Nc3cc(-c4cccc(C(N)=O)c4)ccn3)C2)nc1 [Example 430]	142 nM
N#Cc1ncc(N2CCC[C@H](N[C@@H]3CCCC[C@H]3Nc3cc(-c4cccc(C(N)=O)c4)ccn3)C2)cn1 [Example 431]	171 nM
C[C@]1(N[C@@H]2CCCC[C@H]2Nc2ncc(-c3cccc(C(N)=O)c3)o2)CCCN(c2ncc(C#N)cn2)C1 [Example 432]	29 nM
N#Cc1cnc(N2C[C@@H]3C[C@H](N[C@@H]4CCCC[C@H]4Nc4ncc(-c5cccc(C(N)=O)c5)o4)[C@H]2C3)nc1 [Example 433]	144 nM

Compound	EC50
N#Cc1ncc(N2C[C@@H]3C[C@H](N[C@@H]4CCCC[C@H]4Nc4ncc(-c5cccc(C(N)=O)c5)o4)[C@H]2C3)cn1 [Example 434]	129 nM
C[C@]1(N[C@@H]2CCCC[C@H]2Nc2cc(-c3cccc(C(N)=O)c3)ccn2)CCCN(c2ncc(C#N)cn2)C1 [Example 435]	400 nM
N#Cc1ncc(N2CCC[C@H](N[C@@H]3CCCC[C@H]3Nc3cc(-c4cc(F)c(F)cc4F)ccn3)C2)cn1 [Example 436]	756 nM
N#Cc1cnc(N2CCCC(N[C@@H]3CCCC[C@H]3Nc3ncc(-c4cccc(C(N)=O)c4)o3)C2)nc1 (stereo partly shown) [Example 437]	35 nM
N#Cc1ncc(N2CCC[C@H](N[C@@H]3CCCC[C@H]3Nc3ncc(-c4cccc(C(N)=O)c4)o3)C2)cn1 [Example 438]	5 nM
N#Cc1cc(N2C[C@@H]3C[C@H](N[C@@H]4CCCC[C@H]4Nc4ncc(-c5cccc(C(N)=O)c5)o4)[C@H]2C3)ncn1 [Example 439]	578 nM
N#Cc1cnc(N2C[C@@H]3C[C@H](N[C@@H]4CCCC[C@H]4Nc4ncc(-c5ccc(OC(F)(F)F)cc5)o4)[C@H]2C3)nc1 [Example 440]	15 nM
N#Cc1cnc(N2C[C@@H]3C[C@H](N[C@@H]4CCCC[C@H]4Nc4cc(Br)ccn4)[C@H]2C3)nc1 [Example 441]	803 nM
N#Cc1cnc(N2C[C@@H]3C[C@H](N[C@@H]4CCCC[C@H]4Nc4cc(-c5cccc(C(N)=O)c5)ccn4)[C@H]2C3)nc1 [Example 442]	228 nM
N#Cc1ccc(N2C[C@@H]3C[C@H](N[C@@H]4CCCC[C@H]4Nc4ncc(-c5ccc(OC(F)(F)F)cc5)o4)[C@H]2C3)nn1 [Example 443]	482 nM
N#Cc1cc(N2C[C@@H]3C[C@H](N[C@@H]4CCCC[C@H]4Nc4ncc(-c5ccc(OC(F)(F)F)cc5)o4)[C@H]2C3)ncn1 [Example 444]	378 nM
C[C@]1(N[C@@H]2CCCC[C@H]2Nc2ncc(-c3cccc(C(N)=O)c3)o2)CCCN(c2ccc(C(=N)NC(=O)C3CC3)nc2)C1 [Example 445]	4 nM
C[C@]1(N[C@@H]2CCCC[C@H]2Nc2ncc(-c3cccc(C(N)=O)c3)o2)CCCN(c2ccc(C(=O)NC(=O)C3CC3)nc2)C1 [Example 446]	6 nM
CCc1nc(-c2ccc(N3CCC[C@H](N[C@@H]4CCCC[C@H]4Nc4cc(-c5cccc(C(N)=O)c5)ccn4)C3)nc2)no1 [Example 447]	8 nM
CCc1nc(-c2ccc(N3CCC[C@H](N[C@@H]4CCCC[C@H]4Nc4ncc(-c5cccc(C(N)=O)c5)o4)C3)nc2)no1 [Example 448]	2 nM
C[C@]1(N[C@@H]2CCCC[C@H]2Nc2ncc(-c3cccc(C(N)=O)c3)o2)CCCN(c2ccc(-c3noc(C4CC4)n3)nc2)C1 [Example 449]	5 nM
C[C@]1(N[C@@H]2CCCC[C@H]2Nc2cc(-c3cccc(C(N)=O)c3)ccn2)CCCN(c2ccc(-c3noc(C4CC4)n3)nc2)C1 [Example 450]	10 nM
NC(=O)c1cccc(-c2ccnc(N[C@@H]3CCCC[C@H]3N[C@H]3CCCN(c4ccc(-c5noc(C6CC6)n5)cn4)C3)c2)c1 [Example 451]	4 nM
NC(=O)c1cccc(-c2cnc(N[C@@H]3CCCC[C@H]3N[C@H]3CCCN(c4ccc(-c5noc(C6CC6)n5)cn4)C3)o2)c1 [Example 452]	3 nM
NC(=O)c1cccc(-c2ccnc(N[C@@H]3CCCC[C@H]3N[C@H]3CCCN(c4ccc(F)cc4)C3)c2)c1 [Example 453]	41 nM
NC(=O)c1cccc(-c2cnc(N[C@@H]3CCCC[C@H]3N[C@H]3CCCN(c4ccc(F)c(F)c4)C3)o2)c1 [Example 454]	3 nM
